Holding throughout (type): cell-based
Experiment [1] deals with WiDr cells (colon cancer cells; wildtype SF3B1). Kind of experiment: Cell viability assay (CellTiter-Glo, 72 hr), WiDr cells. The following applies: Homo sapiens; WiDr cells (wildtype SF3B1); read-out: WiDr GI50. The protocol:
(§1) Cells (WiDr and Panc05.04 obtained from ATCC) were seeded in 96-well plates, with 2000 cells/100 μL/well, and incubated overnight. Spent media was removed, and fresh media containing 9 different concentrations of compound (100 μL/well) were added, with DMSO concentration from compound stock solution adjusted to be 0.1%. Each compound treatment was done in duplicate or triplicate at each concentration.
(§2) Another plate with cells seeded was dedicated as a time zero (Tz) plate, to which was added 0.1% DMSO in media (100 μL/well) followed by CellTiter-Glo® reagent (Promega Corporation, Madison, Wisconsin) (50 μL/well) for ATP measurement as a surrogate of cell viability. Average value from measurement of multiple wells of this plate is used as Tz. Compound-treated plates were incubated for 72 hr at 37° C. Then, CellTiter-Glo® reagent (50 μL/well) was added and ATP was measured. Average value from measurement of the duplicate or triplicate compound-treated wells is used as Ti, and seeded plates with medium having 0.1% DMSO without compound is used as control growth (C).
(§3) Percentage growth inhibition/Percentage viability was calculated as:
(§4) [(Ti−Tz)/(C−Tz)]×100 for concentrations for which Ti>/=Tz
(§5) [(Ti−Tz)/Tz]×100 for concentrations for which Ti<Tz.
(§6) *time zero (Tz), control growth (C), and test growth in the presence of compound (Ti) Percentage growth inhibition/Percentage viability are plotted versus compound concentration to determine Emax.
Emax refers to the maximum achievable response to a compound in a tested dose range, with a negative value indicating cellular lethality. A larger negative Emax value indicates greater cellular lethality for a particular compound. […]
Background: ATP-based viability assays read luminescence as a measure of living cells.

Experiment [2] concerns WiDr-R cells (colon cancer cells; chemically-induced SF3B1 R1074H mutant). Briefly: Cell viability assay (CellTiter-Glo, 72 hr), resistant WiDr-R cells (counter-screen). The following applies: WiDr-R cells (SF3B1 R1074H mutation, resistant); read-out: WiDr-R GI50. As for the experimental part:
as §1, §2, §3, §4, §5, §6
(§7) Emax refers to the maximum achievable response to a compound in a tested dose range, with a negative value indicating cellular lethality. A larger negative Emax value indicates greater cellular lethality for a particular compound.
The counter-screening of compounds in this viability assay with a “resistant” WiDr-R cell line may indicate whether these compounds have off-target effect(s).

Experiment [3] deals with Panc 05.04 cells (pancreatic cancer cells; Q699H and K700E mutations in SF3B1). Kind of experiment: Cell viability assay (CellTiter-Glo, 72 hr), Panc 05.04 cells. As to conditions: Panc 05.04 cells (mutant SF3B1); for GI50: read-out: Panc 05.04 (mt SF3B1 cells), GI50; for Emax: maximum achievable response in tested dose range, negative value = cellular lethality, read-out: Panc 05.04 (mt SF3B1 cells) Emax (%). As for the experimental part:
as §1, §2, §3, §4, §5, §6, §7

On to `C/C(=C\C=C\[C@@H](C)COC(=O)N1CCC[C@H]1C)[C@H]1OC(=O)C[C@H](O)CC[C@@](C)(O)[C@@H](OC(=O)N2CCN(C3CCCCCC3)CC2)/C=C/[C@@H]1C`, for which the concentration for 50% growth inhibition (GI50) (commonly the concentration at which growth is held to half of that of the control) in experiment [1] was found to be 1.42 nM; in experiment [2] it was 21.8 nM; in experiment [3], 2.52 nM.

For the compound `C/C(=C\C=C\[C@@H](C)CO)[C@H]1OC(=O)C[C@H](O)CC[C@@](C)(O)[C@@H](OC(=O)N2CCN(C)CC2)/C=C/[C@@H]1C`, the GI50 is 1150 nM in experiment [1], > 10000 nM in experiment [2] and 1390 nM in experiment [3]. Besides, in experiment [3], the Emax turned out to be 35.1%.

Take `C/C(=C\C=C\[C@@H](C)COC(=O)N1CCCC1)[C@H]1OC(=O)C[C@H](O)CC[C@H](C)[C@@H](OC(=O)N2CCN(C3CCCCCC3)CC2)/C=C/[C@@H]1C`: the results for the 50% growth inhibitory concentration (GI50) in experiment [1], in experiment [2] and in experiment [3] were 8.39 nM, > 1000 nM and 10.8 nM, respectively. In experiment [3], the Emax is -90.9%.

As for `C/C(=C\C=C\[C@@H](C)CNC(=O)C1CCCC1)[C@H]1OC(=O)C[C@H](O)CC[C@@](C)(O)[C@@H](OC(=O)N2CCN(C)CC2)/C=C/[C@@H]1C`, the 50% growth inhibitory concentration (GI50) in experiment [1] is 263 nM; in experiment [2], > 1000 nM; in experiment [3] it was 137 nM. For the same compound, the Emax in experiment [3] is -57%.

With `C/C(=C\C=C\[C@@H](C)COC(=O)N1C[C@H](O)[C@@H](O)C1)[C@H]1OC(=O)C[C@H](O)CC[C@@](C)(O)[C@@H](OC(=O)N2CCN(C3CCCCCC3)CC2)/C=C/[C@@H]1C`, the values for the GI50 in experiment [1], in experiment [2] and in experiment [3] were 294 nM, > 1000 nM and 74.6 nM, respectively. For the same compound, the Emax in experiment [3] was -95.4%.

Turning to `COCCN(C)C(=O)OC[C@H](C)/C=C/C=C(\C)[C@H]1OC(=O)C[C@H](O)CC[C@@](C)(O)[C@@H](OC(C)=O)/C=C/[C@@H]1C`, the results for the GI50 in experiment [1], in experiment [2] and in experiment [3] were 247 nM, > 1000 nM and 64.3 nM, respectively. Besides, in experiment [3], the Emax was -96.8%.

Consider `C/C(=C\C=C\[C@@H](C)c1ccccn1)[C@H]1OC(=O)C[C@H](O)CC[C@@](C)(O)[C@@H](OC(=O)N2CCN(C3CCCCCC3)C(C)C2)/C=C/[C@@H]1C` (some centres unmarked), for which the GI50 in experiment [1] is 133 nM; in experiment [2], > 1000 nM; in experiment [3], 126 nM. The Emax in experiment [3] is -60.4%.

Consider `C/C(=C\C=C\[C@@H](C)COC(=O)N1[C@H](C)CC[C@H]1C)[C@H]1OC(=O)C[C@H](O)CC[C@@](C)(O)[C@@H](OC(=O)N2CCN(C3CCCCCC3)CC2)/C=C/[C@@H]1C`, for which the GI50 in experiment [1] is 2.39 nM; in experiment [2] it was 14.8 nM; in experiment [3] it was 4.52 nM. Moreover, in experiment [3], the Emax was -68.9%.

As to `C/C(=C\C=C\C(C)c1ccnc(N2CC[C@@H](O)C2)n1)[C@H]1OC(=O)CCCCC[C@@H](OC(=O)N2CCN(C3CCCCCC3)CC2)/C=C/[C@@H]1C` (some centres unmarked), the concentration for 50% growth inhibition (GI50) in experiment [1] was 455 nM; in experiment [2], > 10000 nM; in experiment [3] it was 475 nM. For the same compound, the Emax in experiment [3] is -94.8%.

Consider `C/C(=C\C=C\[C@@H](C)COC(=O)N1CC[C@@H](Oc2nnnn2-c2ccccc2)C1)[C@H]1OC(=O)CCCC[C@@](C)(O)[C@@H](OC(=O)N2CCN(C)CC2)/C=C/[C@@H]1C`, for which the results for the GI50 in experiment [1], in experiment [2] and in experiment [3] were 31.6 nM, > 1000 nM and 37.3 nM, respectively. Moreover, the Emax in experiment [3] was -94.9%.

On to `C/C(=C\C=C\[C@@H](C)COC(=O)N1Cc2ccccc2C1)[C@H]1OC(=O)C[C@H](O)CC[C@@](C)(O)[C@@H](OC(=O)N2CCN(C)CC2)/C=C/[C@@H]1C`, for which the 50% growth inhibitory concentration (GI50) in experiment [1] is 33.8 nM; in experiment [2], > 1000 nM; in experiment [3], 35.4 nM. The Emax in experiment [3] was -56%.

For `C/C(=C\C=C\C1(COC(=O)N2CCCC2)CC1)[C@H]1OC(=O)C[C@H](O)CC[C@@](C)(O)[C@@H](OC(=O)N2CCN(C3CCCCCC3)CC2)/C=C/[C@@H]1C`, the figures for the GI50 in experiment [1], in experiment [2] and in experiment [3] were 138 nM, > 1000 nM and 302 nM, respectively. Further, the Emax in experiment [3] is -24.7%.

On to `CC(=O)O[C@H]1/C=C/[C@H](C)[C@@H](/C(C)=C/C=C/[C@@H](C)COC(=O)N2CCSC2)OC(=O)C[C@H](O)CC[C@@]1(C)O`, for which the GI50 in experiment [1] is 62.9 nM; in experiment [2] it was > 1000 nM; in experiment [3] it was 68 nM.
